Data reported in patent publication US4254285A, “1-Hydroxymethyl-1-1-oxo prostane derivatives of the E and F series” (American Cyanamid Company, priority 1979, dated 1981).
Like-named read-outs stand apart in the source and are kept apart here.

Assays:
[1] = system: bronchospasms elicited by histamine; assay: Bronchodilator Activity (Konzett Assay), histamine; format: in vivo; settings: guinea pig, intravenous, spasmogen histamine, three logarithmic cumulative doses
Experimental: (§1) The bronchodilator activity of some of the PGE compounds of this invention is determined in guinea pigs against bronchospasms elicited by intravenous injections of 5-hydroxytryptamine, histamine or acetylcholine by the Konzett procedure. [See J. Lulling, P. Lievens, F. El Sayed and J. Prignot, Arzneimittel-Forschung, 18, 995 (1968)].
(§2) In the Table B which follows, bronchodilator activity for representative compounds of this invention against one or more of the three spasmogenic agents is expressed as an ED50 determined from the results obtained with three logarithmic cumulative intravenous doses.

[2] = system: bronchospasms elicited by acetylcholine; assay: Bronchodilator Activity (Konzett Assay), acetylcholine; format: in vivo; settings: guinea pig, intravenous, spasmogen acetylcholine, three logarithmic cumulative doses
Experimental: as §1, §2

[3] = system: continuous respiratory spasm induced by pilocarpine; assay: Bronchodilator Activity (Pilocarpine Assay); format: in vivo; settings: dog, aerosol, 3.2 mg/ml; for inhibition at 3200 µg/mL: Canis lupus familiaris, inhaled or nasal
Experimental: The PGE compounds of this invention also have bronchodilator activity as determined in a test using dogs anesthetized, artificially ventilated and submitted to a continuous respiratory spasm induced by pilocarpine. Mongrel dogs of either sex weighing between 5 and 10 kg are used. They are premedicated with morphine HCl by subcutaneous injection at 1.5 mg/Kg. An intravenous perfusion of 5% (W/V) chloralose is started 1/2 hour after the morphine injection in such a way that 60 mg/Kg are administered within 15 minutes. After completion, a continuous perfusion of 10 mg/Kg hour is maintained throughout the experiment. The dogs are artificially ventilated by means of a Starling pump at a rate of 20 breaths/minute. The volume is adjusted according to the weight of the animal. [Kleinman and Radford, J. Appl. Physiol., 19, 360 (1964)]. All the measurements are made with the dogs positioned supine in a heated, V-shaped table. Curarization is obtained by succinylcholine chloride using a starting injection of 3 mg/Kg lasting 3 minutes, followed by a continuous perfusion of 0.1 mg/Kg/minute. The respiratory spasm is induced by a starting injection of 400 mcg/Kg of pilocarpine HCl lasting 5 minutes. An increase or decrease in the dose of pilocarpine HCl may occur as a function of the observed effect on airway's resistance. A 15 minute delay is observed before the start of a continuous perfusion of pilocarpine HCl at a dose of 4 mcg/Kg/minute to maintain a constant spasm during the test. A metallic cannula is inserted and fixed, after tracheotomy, into the upper part of the trachea. The two cephalic veins and the two femoral veins are catheterized to inject the various agents. The femoral artery is catheterized to measure the systemic blood pressure. An esophageal balloon (11 cm×2.5 cm) is inserted into the lower third of the oesophagus to measure the endothoracic pressure. The measurement of air flow is made with a […] pneumotachograph connected to the tracheal tube. The transpulmonary pressure is measured as follows: The tracheal cannula is equipped with a stainless steel axial tube (1.5 mm) which is closed at its distal end and projected 2.5 cm beyond the end of the cannula. Three holes with a diameter of one mm are pierced on this latter segment. This tube, which is used to measure the tracheal pressure, is connected to one of the two chambers of a Sanborn 267 B/C differential transducer. The other chamber is connected to the esophageal balloon by means of a polyethylene catheter of the same length and characteristics as the balloon's. The airway's resistance, expressed in cm of water/liter/second, is measured by subtracting from the electrical equivalent of the transpulmonary pressure, a voltage proportional to the flow so as to synchronize the pressure and volume signals on the oscilloscope [Mead and Whittenberger, J. Appl. Physiol, 5, 779 (1953)]. The test compounds are administered by an Aerosol® route. The micronebulizer of a Bird Mark 7 respirator is fitted on the metallic cannula just after the pneumotachograph. The "puff" of the test compound, in Aerosol® is driven by a 2 Kg/cm^2 pressure, allowed into the micronebulizer just during one inspiration cycle. The micronebulizer is fitted on the respiratory tube only during the "puff". It is weighed just before and just after administration to determine the amount of test compound administered.

[4] = system: bronchospasms elicited by 5-hydroxytryptamine; assay: Bronchodilator Activity (Konzett Assay), 5-hydroxytryptamine; format: in vivo; settings: guinea pig, intravenous, spasmogen 5-hydroxytryptamine, three logarithmic cumulative doses
Experimental: as §1, §2

[5] = system: platelet aggregation induced by adenosine diphosphate; assay: Inhibition of platelet aggregation in vitro, adenosine diphosphate; format: cell-based; settings: 0.025 mg/ml, human plasma
Text: (§3) It is well known that platelet aggregation inhibitors may be useful as anti-thrombotic drugs. Inhibition of platelet aggregation can be conveniently measured in vitro by monitoring changes in optical density and/or light transmission in platelet rich plasma upon addition of suitable aggregating agents such as adenosine diphosphate, epinephrine, thrombin or collagen. Alternatively, platelet aggregation can be measured in vitro using platelet rich plasma obtained at various time intervals from animals given inhibitors by an oral or parenteral route.
(§4) […] is incubated with modified Tyrode's solution in a proportion of 40-50% human protein rich plasma. The test compounds are added at varying concentrations and after 5 minutes incubation, an aggregating agent such as adenosine diphosphate or collagen is added. The change in optical density (light transmission) is monitored by eye and inhibition is recorded as a (-) or lack of inhibition is recorded as a (+). Test compounds are considered active if they inhibit adenosine diphosphate or collagen induced aggregation at a concentration of 0.025 mg/ml or less within 5-10 minutes.

[6] = system: platelet aggregation induced by collagen; assay: Inhibition of platelet aggregation in vitro, collagen; format: cell-based; settings: 0.025 mg/ml, human plasma
Text: as §3, §4

[7] = system: indomethacin-induced gastric ulcers; format: in vivo, rat; settings: indomethacin-only treatment, 10 mg/kg subcut.
Experimental: (§5) Male Wistar rats (Royal Hart, New Hampton, N.Y.), weighing 190-210 g are distributed among control and treatment groups (5 rats/group) and housed one rat per cage. During the 52 hour test period, the rats are permitted free access to food and drinking water for the first 33 hours but are fasted overnight prior to sacrifice. Indomethacin is suspended (4 mg/ml) in a 1.5% starch-phosphate buffer solution (SPBS). 1,9-dioxo-11α,16-dihydroxy-16-methyl-1-hydroxymethyl-13-transprostene is dissolved at 10 mg/ml in ethanol and then diluted in SPBS to 0.1 mg/ml or to a lower concentration as required. The indomethacin suspension is injected subcutaneously (10 mg/kg) and the prostaglandin suspension is given by gavage (0.5 mg/kg or less) b.i.d. on day 0 and 1. Rats receive only one dose of prostaglandin and indomethacin on day 2 and 6 hours later are killed with chloroform. The stomachs are dissected, opened along the greater curvature, and rinsed briefly in tap water. They are then spread, mucosal surface facing upward and pinned onto uniform size corks (2.5 inch diameter) individually numbered on the back. The identification number for each stomach is unknown to the investigator and the stomachs are randomly graded according to the following scheme:
1--Petechial hemorrhage, or pin-point ulcers
2--One or two small ulcers or hemorrhagic erosions
3--Many areas of hemorrhage erosion or ulcers, a few large
4--Massive areas of hemorrhagic erosion or many ulcers, mainly large
(§6) ^a Treatment is B.I.D. on days 0 and 1, and once on day 2, six hours
(§7) prior to sacrifice for scoring.

[8] = system: indomethacin-induced intestinal ulcers; format: in vivo, rat; settings: indomethacin-only treatment, 10 mg/kg subcut.
Experimental: as §5
Intestines are also removed and examined for the presence of ulcers, which are graded according to the scheme outlined below.
1--Mucosa thin, petechial hemorrhage
2--"Blow-outs", when intestine inflated with air
3--Few ulcers. Gut more fragile than normal, tears along line of mesentery attachements when removed
4--Many large perforating lesions. Adhesions. Gut hemorrhagic and very fragile. Tears readily and cannot be removed intact. Graded in situ.
as §6, §7

[9] = format: in vivo, rat; settings: indomethacin-only treatment, 10 mg/kg subcut.
Experimental: as §5, §6, §7

[10] = Cavia porcellus, read-out: ED50
[11] = 5 min, 5 min. after drug administration
[12] = 0.5 h, 30 min. after drug administration
[13] = 1 h, 60 min. after drug administration

Structure (SMILES) | ED50 [1, 10] [µg/kg] | ED50 [2, 10] [µg/kg] | inhibition at 3200 µg/mL [3, 11] [%] | inhibition at 3200 µg/mL [3, 12] [%] | inhibition at 3200 µg/mL [3, 13] [%] | ED50 [4, 10] [µg/kg] | other results
C=CC(O)(CC=CC1C(O)CC(=O)C1CC=CCCCC(=O)CO)CCCC (stereo not drawn) | 0.254 | 2.66 | 80 | 80 | 66 | 0.402 | –
CCCCCC(O)/C=C/C1CCC(=O)C1CCCCCCC(=O)CO (stereo not drawn) | – | – | – | – | – | – | inhibition of platelet aggregation [5]: shows inhibition of platelet aggregation; inhibition of platelet aggregation [6]: shows inhibition of platelet aggregation
C=CC(O)(CC=CC1C(O)CC(=O)C1CC=CCCCC(=O)COC(C)=O)CCCC (stereo not drawn) [1,9-Dioxo-11α,16-dihydroxy-16-vinyl-1-acetoxymethyl-5-cis-13-trans-prostadiene] | 0.78 | 0.795 | 92 | 75 | 55 | – | –
CCCCC1(C(O)C=CC2C(O)CC(=O)C2CC=CCCCC(=O)CO)CCC1 (stereo not drawn) [1,9-dioxo-11α,15-dihydroxy-1-hydroxymethyl-16,16-trimethylene-13-trans-5-cis-prostadiene] | – | – | 80 | 74 | 68 | – | –
CCCCC1(C(O)C=CC2C(O)CC(=O)C2CCCCCCC(=O)CO)CCC1 (stereo not drawn) [1,9-dioxo-11α,15-dihydroxy-1-hydroxymethyl-16,16-trimethylene-13-trans-prostene] | 0.734 | 1.3 | 90 | 75 | 60 | 1.4 | –
CCCCCC(O)C=CC1C(O)CC(=O)C1CCCCCCC(=O)CO (stereo not drawn) [1,9-dioxo-11α,15α-dihydroxy-1-hydroxymethyl-13-trans-prostene] | 0.547 | 3.9 | 80 | 40 | 15 | 0.936 | –
CCCCC1(C(O)/C=C/C2C(O)CC(=O)C2C/C=C\CCCC=O)CCC1 (stereo not drawn) [1,9-dioxo-11α,15α-dihydroxy-16,16-trimethylene-5-cis,13-trans-prostadiene] | – | – | – | – | – | – | ED50 [1]: 0.781 µg/kg; ED50 [2]: 0.995 µg/kg; ED50 [4]: 1.49 µg/kg
C=CC(O)(CC=CC1C(O)CC(=O)C1CCCCCCC(=O)CO)CCCC (stereo not drawn) [1,9-dioxo-11α,16-dihydroxy-1-hydroxymethyl-16-vinyl-13-trans-prostene] | 0.25 | 1.7 | 90 | 80 | 70 | 0.147 | –
CCCCCC(C)(O)CC=CC1C(O)CC(=O)C1CC=CCCCC(=O)CO (stereo not drawn) [1,9-dioxo-11α,16-dihydroxy-16,20-dimethyl-1-hydroxymethyl-13-trans-5-cis-prostadiene] | 8.8 | 19 | – | – | – | 47 | –
CCCCCC(C)(O)CC=CC1C(O)CC(=O)C1CCCCCCC(=O)CO (stereo not drawn) [1,9-dioxo-11α,16-dihydroxy-16,20-dimethyl-1-hydroxymethyl-13-trans-prostene] | – | – | 55 | 70 | 55 | – | –
CCCCC(O)(CC)CC=CC1C(O)CC(=O)C1CC=CCCCC(=O)CO (stereo not drawn) [1,9-dioxo-11α,16-dihydroxy-16-ethyl-1-hydroxymethyl-5-cis-13-trans-prostadiene] | – | – | 70 | 50 | 35 | – | –
CCCCCC(C)(O)/C=C/C1CCC(=O)C1CCCCCCC(=O)CO (stereo not drawn) [1,9-dioxo-15α-hydroxy-15-methyl-1-hydroxymethyl-13-trans-prostene] | – | – | – | – | – | – | ED50 [1]: 0.373 µg/kg; ED50 [2]: 0.293 µg/kg; % Inhibition of pilocarpine induced spasm ([3]; 5 min. after drug administration): 37%; % Inhibition of pilocarpine induced spasm ([3]; 30 min. after drug administration): 30%; % Inhibition of pilocarpine induced spasm ([3]; 60 min. after drug administration): 30%; ED50 [4]: 0.288 µg/kg
COc1ccc2c(c1)c(CC(=O)O)c(C)n2C(=O)c1ccc(Cl)cc1 [Indomethacin, reference compound] | – | – | – | – | – | – | Gastric Ulcer Score (Mean ± S.E.M.) [7]: 2.9 ± 0.2; Intestinal Ulcer Score (Mean ± S.E.M.) [8]: 3.7 ± 0.2; Hematocrit (Mean ± S.E.M.) [9]: 33.1 ± 2.1
CCCCCC(O)CCC1CCC(=O)C1CCCCCCC(=O)CO [l-1,9-dioxo-15(S)-hydroxy-1-hydroxymethyl prostane] | 0.471 | – | 70 | 45 | 30 | 0.89 | –
